The source of these data is article PMC11684019, “Unveiling the Antimycobacterial Potential of Novel 4-Alkoxyquinolines: Insights into Selectivity, Mechanism of Action, and In Vivo Exposure” (Journal of Medicinal Chemistry, 2024).

Values after ≈ are worked out from the molar mass of the structure shown. Where two headings read alike, the source gives them in different places.

Data set [1] deals with M. tuberculosis H37Rv strain. As to the kind of experiment: microbe, parasite or virus in culture. The format is cell-based, Mycobacterium tuberculosis.
The test system of data set [2] is M. tuberculosis strain PT2 (MDR clinical isolate). Format: cell-based, Mycobacterium tuberculosis.
The test system of data set [3] is M. tuberculosis strain PT12 (MDR clinical isolate). Format: cell-based, Mycobacterium tuberculosis.
In data set [4] the test system is M. tuberculosis strain PT20 (MDR clinical isolate). Format: cell-based, Mycobacterium tuberculosis.
The test system of data set [5] is HepG2 cells. Particulars: read-out: CC50 HepG2; MTT method, 72 h.
The subject of data set [6] is HepG2 cells. To be noted: read-out: CC50 HepG2; Neutral Red method, 72 h.
The test system of data set [7] is Vero cells. To be noted: read-out: CC50 Vero; MTT method, 72 h.
Data set [8] concerns Vero cells. To be noted: read-out: CC50 Vero; Neutral Red method, 72 h.
Data set [9] is described as follows: Aqueous solubility (UHPLC-DAD). Particulars: 25 °C, 4 h; for Solubility pH 1.2: 0.1 M HCl solution; for Solubility pH 9.1: 0.1 M NH4HCO3 solution; for Solubility pH 7.4: PBS.
The subject of data set [10] is M. tuberculosis H37Rv strain in murine macrophage RAW 264.7 cells. Format: cell-based, Mycobacterium tuberculosis.
A short description of another data set: in vitro. To be noted: PAMPA, pH 7.4.
For another data set, the system named is Mtb. Particulars: cited from earlier work.
Where [11] appears, read: M. tuberculosis H37Rv, resazurin-based assay.

Turning to “4-Bromo-N-(3-((6-methoxy-2-methylquinolin-4-yl)oxy)propyl)aniline [8d]”, in data set [1] (setting [11]), the MIC is 0.10 µM. Further, the “MIC PT2” value in [2] is under 0.05 µM. Also, in data set [3], the “MIC PT12” value was under 0.05 µM. Further, the “MIC PT20” value in [4] is under 0.05 µM. The CC50 with HepG2 cells [5] is 15.3 µM; in the data set with HepG2 cells [6], 16.8 µM; in the data set on Vero cells [7], over 20 µM; in the data set on Vero cells [8], 12.8 µM.

As to “4-Ethyl-N-(3-((6-methoxy-2-methylquinolin-4-yl)oxy)propyl)aniline [8i]”, in [1] (setting [11]), the MIC is recorded as 0.06 µM. The “MIC PT2” value in data set [2] was under 0.06 µM. In data set [3], the “MIC PT12” value is under 0.06 µM. Besides, in data set [4], the “MIC PT20” value is under 0.06 µM. In addition, the CC50 was 0.3 µM in the data set on HepG2 cells [5], 8.1 µM with HepG2 cells [6], under 1 µM in the data set with Vero cells [7] and 4.2 µM in the data set with Vero cells [8].

Consider “4-Iodo-N-(3-((6-methoxy-2-methylquinolin-4-yl)oxy)propyl)aniline [8e]”, for which, in data set [1] (setting [11]), the MIC came out at 0.09 µM. In addition, the “MIC PT2” value in [2] was under 0.05 µM. Also, in data set [3], the “MIC PT12” value is under 0.05 µM. Further, in [4], the “MIC PT20” value was under 0.05 µM. The cytotoxic concentration (CC50) in the data set on HepG2 cells [5] turned out to be 10.6 µM; with HepG2 cells [6], 12.8 µM; in the data set on Vero cells [7] it was 8.2 µM; in the data set with Vero cells [8], 7.5 µM.

Regarding `COc1ccc2nc(C)cc(OCCCNc3ccccc3)c2c1` [8a, N-(3-((6-methoxy-2-methylquinolin-4-yl)oxy)propyl)aniline], the MIC in [1] (setting [11]) is listed as 0.25 µM (≈ 0.0806 µg/mL).

In turn, `COc1ccc2nc(C)cc(OCCCNc3ccc(F)cc3)c2c1` [8b, 4-Fluoro-N-(3-((6-methoxy-2-methylquinolin-4-yl)oxy)propyl)aniline] showed an MIC in [1] (setting [11]) of 0.47 µM (≈ 0.16 µg/mL).

`COc1ccc2nc(C)cc(OCCCNc3ccc(Cl)cc3)c2c1` [8c, 4-Chloro-N-(3-((6-methoxy-2-methylquinolin-4-yl)oxy)propyl)aniline]: in data set [1] (setting [11]), the MIC was found to be 0.22 µM (≈ 0.0785 µg/mL).

Compound `COc1ccc2nc(C)cc(OCCCNc3ccc(C(F)(F)F)cc3)c2c1` [8f, N-(3-((6-methoxy-2-methylquinolin-4-yl)oxy)propyl)-4-(trifluoromethyl)aniline] registered an MIC in data set [1] (setting [11]) of 3.20 µM (≈ 1.25 µg/mL).

On to `COc1ccc2nc(C)cc(OCCCNc3ccc(OC(F)(F)F)cc3)c2c1` [8g, N-(3-((6-methoxy-2-methylquinolin-4-yl)oxy)propyl)-4-(trifluoromethoxy)aniline], for which the MIC in data set [1] (setting [11]) was 0.20 µM (≈ 0.0813 µg/mL).

In the case of `COc1ccc2nc(C)cc(OCCCNc3ccc(C)cc3)c2c1` [8h, N-(3-((6-methoxy-2-methylquinolin-4-yl)oxy)propyl)-4-methylaniline], the MIC in data set [1] (setting [11]) stood at 0.24 µM (≈ 0.0807 µg/mL).

`COc1ccc2nc(C)cc(OCCCNc3ccc(C(C)C)cc3)c2c1` [8j, 4-Isopropyl-N-(3-((6-methoxy-2-methylquinolin-4-yl)oxy)propyl)aniline] displayed an MIC in [1] (setting [11]) of 0.11 µM (≈ 0.0401 µg/mL).

In data set [1] (setting [11]), `Cc1cc(OCCCNc2ccc(Cl)cc2)c2cc(Cl)ccc2n1` [8k, 4-Chloro-N-(3-((6-chloro-2-methylquinolin-4-yl)oxy)propyl)aniline] returned an MIC of 0.22 µM (≈ 0.0795 µg/mL).

Take `Cc1cc(OCCCNc2ccc(OC(F)(F)F)cc2)c2cc(Cl)ccc2n1` [8m, N-(3-((6-Chloro-2-methylquinolin-4-yl)oxy)propyl)-4-(trifluoromethoxy)aniline]: the MIC in data set [1] (setting [11]) came to 0.19 µM (≈ 0.0781 µg/mL).

In [1] (setting [11]), `CCc1cc(OCCCNc2ccc(Cl)cc2)c2cc(Cl)ccc2n1` [8o, 4-Chloro-N-(3-((6-chloro-2-ethylquinolin-4-yl)oxy)propyl)aniline] returned an MIC of 0.11 µM (≈ 0.0413 µg/mL).

For `CCc1cc(OCCCNc2ccc(Br)cc2)c2cc(Cl)ccc2n1` [8p, 4-Bromo-N-(3-((6-chloro-2-ethylquinolin-4-yl)oxy)propyl)aniline], the MIC in data set [1] (setting [11]) came to 0.38 µM (≈ 0.16 µg/mL).

The compound `CCc1ccc(NCCCOc2cc(CC)nc3ccc(Cl)cc23)cc1` [8q, N-(3-((6-chloro-2-ethylquinolin-4-yl)oxy)propyl)-4-ethylaniline] yielded an MIC in [1] (setting [11]) of 0.22 µM (≈ 0.0812 µg/mL).

The compound `Cc1cc(OCCCNc2ccc(Cl)cc2)c2cc(Br)ccc2n1` [8r, N-(3-((6-bromo-2-methylquinolin-4-yl)oxy)propyl)-4-chloroaniline] showed an MIC in [1] (setting [11]) of 0.10 µM (≈ 0.0406 µg/mL). In addition, in data set [2], the “MIC PT2” value was under 0.05 µM. Further, in data set [3], the “MIC PT12” value is under 0.05 µM. In addition, in [4], the “MIC PT20” value was under 0.05 µM. For the same compound, the cytotoxic concentration (CC50) in the data set with HepG2 cells [5] was over 20 µM; in the data set on HepG2 cells [6], over 20 µM; with Vero cells [7], 19.8 µM; in the data set on Vero cells [8], 11.2 µM. Besides, the “Solubility pH 1.2” value in data set [9] is >2,470 μM. Also, the “Solubility pH 9.1” value in data set [9] was found to be 57.18 μM. Further, the “Solubility pH 7.4” value in data set [9] is recorded as 15.0 μM.

On to `Cc1cc(OCCCNc2ccc(Br)cc2)c2cc(Br)ccc2n1` [8s, 4-Bromo-N-(3-((6-bromo-2-methylquinolin-4-yl)oxy)propyl)aniline], for which the MIC in data set [1] (setting [11]) is given as 0.35 µM (≈ 0.158 µg/mL).

Compound `CCc1cc(OCCCNc2ccc(Cl)cc2)c2cc(Br)ccc2n1` [8u, N-(3-((6-bromo-2-ethylquinolin-4-yl)oxy)propyl)-4-chloroaniline] gave an MIC in data set [1] (setting [11]) of 0.19 µM (≈ 0.0798 µg/mL).

As for `CCc1cc(OCCCNc2ccc(Br)cc2)c2cc(Br)ccc2n1` [8v, 4-Bromo-N-(3-((6-bromo-2-ethylquinolin-4-yl)oxy)propyl)aniline], the MIC in data set [1] (setting [11]) is given as 0.34 µM (≈ 0.158 µg/mL).

In turn, `NNC(=O)c1ccncc1` [INH, isoniazid, reference compound] returned an MIC in data set [1] (Mycobacterium tuberculosis, H37RV) of 2.3 µM (≈ 0.315 µg/mL). Besides, in [10], the “Kind of effect on intracellular growth of M. tuberculosis H37Rv” value was “bactericidal effect” and the “Log10 CFU/well (Mean ± SD)” value is 2.25 ± 0.15 ^c^, ^d Log10 CFU/well. The “Log10 CFU/well (Mean ± SD)” value in data set [10] (listed as isoniazid) came to 2.25.

As to `CCc1nc2ccc(Cl)cn2c1C(=O)NCc1ccc(N2CCC(c3ccc(OC(F)(F)F)cc3)CC2)cc1` [Q203, telacebec, reference compound], in data set [1] (Mycobacterium tuberculosis, M. tuberculosis H37Rv, resazurin-based assay), the MIC came out at 0.009 µM (≈ 0.00501 µg/mL).

In the case of `C=CCc1ccccc1OCC(O)CNC(C)C` (stereo not shown) [alprenolol], the Papp at 5 h, 10 µM in “in vitro” is 4.1 ×10⁻⁶ cm/s.

For the compound `COc1ccc2nc(C)cc(OCC(=O)Nc3ccccc3OC)c2c1` [compound 1], the “MIC (Mtb)” value with Mtb is 0.44 µM (≈ 0.155 µg/mL).

Take `COc1ccc2nc(C)cc(OCC(=O)Nc3ccc4ccccc4c3)c2c1` [compound 2]: the “MIC (Mtb)” value in the data set with Mtb is 0.05 µM (≈ 0.0186 µg/mL).

Turning to `CCCc1ccc(NC(=O)COc2cc(C)nc3ccc(OC)cc23)cc1` [compound 3], the “MIC (Mtb)” value with Mtb was 0.05 µM (≈ 0.0182 µg/mL).

With `COc1ccc2nc(C)cc(OCc3ccc(Cl)c(Cl)c3)c2c1` [compound 4], in the data set with Mtb, the “MIC (Mtb)” value was 0.3 µM (≈ 0.104 µg/mL).

For `COc1ccc2nc(C)cc(OCC(=O)c3cccc(Cl)c3)c2c1` [compound 5], the “MIC (Mtb)” value in the data set with Mtb was 1.8 µM (≈ 0.615 µg/mL).

The compound “N-(3-((6-Chloro-2-methylquinolin-4-yl)oxy)propyl)-4-ethylaniline [8n]” came in with an MIC in data set [1] (setting [11]) of 0.03 µM. The “MIC PT2” value in data set [2] was under 0.06 µM. In addition, in [3], the “MIC PT12” value is under 0.06 µM. Besides, the “MIC PT20” value in data set [4] is under 0.06 µM. For the same compound, in data set [9], the “Solubility pH 1.2” value is 200 μM, the “Solubility pH 9.1” value came to 0.37 μM and the “Solubility pH 7.4” value is 0.06 μM.

In turn, “N-(3-((6-bromo-2-ethylquinolin-4-yl)oxy)propyl)-4-ethylaniline [8w]” came in with an MIC in [1] (setting [11]) of 0.10 µM. The “MIC PT2” value in data set [2] is under 0.05 µM. In addition, in data set [3], the “MIC PT12” value is under 0.05 µM. Besides, the “MIC PT20” value in data set [4] is under 0.05 µM. For the same compound, the CC50 in the data set on HepG2 cells [5] was over 20 µM; in the data set on HepG2 cells [6], 8.3 µM; with Vero cells [7], over 20 µM; in the data set with Vero cells [8], 9.1 µM.
